Data published in patent US20030199671A1, “Binding molecules for Fc-region polypeptides” (priority 2001, published 2003).

What was measured:
IgG3 [1] = molecular target: T1, IgG3 (Homo sapiens, UniProt P01860); experiment: Competition between synthetic peptides and Protein A for Fc binding; design: the individual human plasma IgG isoforms: IgG1, IgG2, IgG3, or IgG4; purchased Calbiochem; host or cells: human plasma; key: NB: no detected binding.; ?: partial decrease in anisotropy with added competitor; conditions: 5 mg/ml protein A
Experimental: (§1) Cross-competition studies between peptides were performed using 20 nM fluorescein-labeled peptide and 1-2 μM IgG1, IgG2, IgG3, or IgG4 in the presence and absence of a maximum of 100 μM unlabeled peptide or 5 mg/ml protein A.
(§2) This is consistent with the fact that Protein A is known not to bind human IgG3.

IgG4 [2] = molecular target: T2, IgG4 (Homo sapiens, UniProt P01861); experiment: as above; design: the individual human plasma IgG isoforms: IgG1, IgG2, IgG3, or IgG4; purchased Calbiochem; host or cells: human plasma; key: NB: no detected binding.; ?: partial decrease in anisotropy with added competitor; conditions: 5 mg/ml protein A
Experimental: as §1, §2

IgG4 [3] = molecular target: T2, IgG4; format: binding; design: all human subtypes derived from myeloma patients; purchased Calbiochem 400126; host or cells: myeloma patients; conditions: Table 9; immobilized peptide, 5.0 mg/ml resin load
In short: (§3)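 Read-out is A280 of unbound IgG (1.4 mg/ml extinction coefficient), with percent bound derived against non-filtered or negative controls. Targets were incubated with immobilized peptides in PBST or TBST for 1-1.5 h at room temperature. Hydrolyzed Sepharose and immobilized Protein A serve as negative and positive controls.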

human plasma IgG2 = molecular target: T3, human plasma IgG2 (Homo sapiens, UniProt P01859); experiment: Fluorescence anisotropy binding, fluorescein-labeled peptide
T3 construct: the individual human plasma IgG isoforms: IgG1, IgG2, IgG3, or IgG4; purchased Calbiochem; host or cells: human plasma
Experimental: (§4) All measurements were performed in 384 well microplates with 20 nM fluorescein-labeled peptide and various concentrations of the IgG isoform in a volume of between 10 and 20 μl using a Tecan Polarion fluorescence polarization plate reader. All binding buffers included 0.01% (v/v) Tween 20 to prevent peptide adsorption to the microplate. The binding mixture was equilibrated for 10 minutes in the microplate at 30° C. prior to performing the measurement.
(§5) Peptides were synthesized, fluorescein-labeled and HPLC purified as described above. Binding studies were performed using either a mixture of human plasma IgG isoforms (the Fc protein) or the individual human plasma IgG isoforms: IgG1, IgG2, IgG3, or IgG4.
(§6) Measurements were performed in 384-well microplates with 2 nM fluorescein-labeled peptide and a varied concentration of the IgG isoform target in a volume of 10 μl using a Tecan Polarion fluorescence polarization plate reader. The Fc binding buffer was 50 mM Tris-HCl, 200 mM NaCl, pH 8.0, 0.01% Tween 20. The IgG binding buffer was PBS with 0.01% Tween 20. The binding mixtures were equilibrated for 10 minutes in the microplate at 30° C. prior to performing the measurements.

human plasma IgG1 = molecular target: T4, human plasma IgG1 (Homo sapiens, UniProt P01857); experiment: as above
T4 construct: the individual human plasma IgG isoforms: IgG1, IgG2, IgG3, or IgG4; purchased Calbiochem; host or cells: human plasma
Experimental: as §4, §5, §6

IgG3 [4] = molecular target: T1, IgG3; format: binding; design: all human subtypes derived from myeloma patients; purchased Calbiochem 400124; host or cells: myeloma patients; conditions: Table 9; immobilized peptide, 5.0 mg/ml resin load
In short: (§7)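 Percent bound = control mass minus unbound mass, with unbound IgG read at A280 after 1–1.5 h room-temperature incubation with the peptide resin in PBST pH 7.2 or TBST pH 7.5. Bound IgG was eluted 30–60 min with 0.1 M citrate pH 4.0 and/or bicarbonate pH 8.5. Recovery is given as percent of total load.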

human plasma IgG4 = molecular target: T5, human plasma IgG4 (Homo sapiens, UniProt P01861); experiment: Fluorescence anisotropy binding, fluorescein-labeled peptide
T5 construct: the individual human plasma IgG isoforms: IgG1, IgG2, IgG3, or IgG4; purchased Calbiochem; host or cells: human plasma
Experimental: (§8) Peptides were synthesized by BACHEM Bioscience, Inc., (King of Prussia, Pa.), fluorescein labeled and purified by HPLC. Binding studies were performed using either a mixture of human plasma IgG isoforms (the Fc target) or the individual human plasma IgG isoforms: IgG1, IgG2, IgG3, or IgG4. All Fc target proteins were obtained from Calbiochem.
as §4, §5, §6

[5] = molecular target: Fc (mixture of human plasma IgG isoforms); experiment: as above; conditions: pH 8.0, 0.05 M Tris-HCl, 0.2 M NaCl
Experimental: as §8, §4, §5, §6

human plasma IgG3 = molecular target: T6, human plasma IgG3 (Homo sapiens, UniProt P01860); experiment: as above
T6 construct: the individual human plasma IgG isoforms: IgG1, IgG2, IgG3, or IgG4; purchased Calbiochem; host or cells: human plasma
Experimental: as §8, §4, §5, §6

human IgG2 = molecular target: T7, human IgG2 (Homo sapiens, UniProt P01859); format: binding; conditions: Table 9; immobilized peptide, 5.0 mg/ml resin load
T7 construct: all human subtypes derived from myeloma patients; purchased Calbiochem 400122; host or cells: myeloma patients
In short: as §3

human IgG1 = molecular target: T8, human IgG1 (Homo sapiens, UniProt P01857); format: binding; conditions: Table 9; immobilized peptide, 5.0 mg/ml resin load
T8 construct: all human subtypes derived from myeloma patients; purchased Calbiochem 400120; host or cells: myeloma patients
In short: as §7

human IgG = format: binding; conditions: Table 11; unfractionated IgG
In short: as §7

goat IgG = format: binding; conditions: Table 11; unfractionated IgG
In short: as §7

bovine IgG = format: binding; conditions: Table 11; unfractionated IgG
In short: as §7

mouse IgG = format: binding; conditions: Table 11; unfractionated IgG
In short: as §7

[6] = pH 9.3, 0.01 M sodium bicarbonate

Competition between labeled peptide and Protein A, IgG3 (IgG3 [1]): ?
Competition between labeled peptide and Protein A, IgG4 (IgG4 [2]): NB
% IgG Capture - Batch Binding, Human IgG4 (IgG4 [3]): 6%
Kd (human plasma IgG2; pH 5.7, 0.01 M Tris-acetate): > 1 µM
Kd (human plasma IgG2; pH 7.4, 0.01 M Tris-HCl): 2 ± 0.7 µM
Kd (human plasma IgG2; pH 7.4, PBS, […] NaCl): 1.1 ± 0.3 µM
Kd (human plasma IgG2; [6]): 2 ± 2.7 µM
Kd (human plasma IgG1; pH 5.7, 0.01 M Tris-acetate, 0 M NaCl): < 0.1 µM
Kd (human plasma IgG1; pH 7.4, 0.01 M Tris-HCl): < 2 µM
Kd (human plasma IgG1; pH 7.4, PBS, […] NaCl): 0.4 ± 0.2 µM
Kd (human plasma IgG1; [6]): 0.4 ± 0.4 µM
% IgG Capture - Batch Binding, Human IgG3 (IgG3 [4]): 36%
Kd (human plasma IgG4; pH 5.7, 0.01 M Tris-acetate): > 10 µM
Kd (human plasma IgG4; pH 7.4, PBS, […] NaCl): > 10 µM
Kd (human plasma IgG4; [6]): > 10 µM
Kd [5]: 1.6 ± 0.6 µM
Kd (human plasma IgG3; pH 5.7, 0.01 M Tris-acetate): 0.3 ± 0.3 µM
Kd (human plasma IgG3; pH 7.4, 0.01 M Tris-HCl): > 10 µM
Kd (human plasma IgG3; [6]): > 10 µM
% IgG Capture - Batch Binding, Human IgG2 (human IgG2): 16%
% IgG Capture - Batch Binding, Human IgG1 (human IgG1): 28%
% IgG Capture - Batch Binding, Human IgG (human IgG): 16%
% IgG Capture - Batch Binding, Goat IgG (goat IgG): 0%
% IgG Capture - Batch Binding, Bovine IgG (bovine IgG): 0%
% IgG Capture - Batch Binding, Mouse IgG (mouse IgG): 2%
SMILES: CC(=O)N[C@@H](C)C(=O)NCC(=O)N[C@@H](Cc1ccc(O)cc1)C(=O)N[C@@H](Cc1ccc(O)cc1)C(=O)N[C@@H](Cc1c[nH]c2ccccc12)C(=O)N[C@H]1CSSC[C@@H](C(=O)N2CCC[C@H]2C(=O)N[C@@H](CC(=O)O)C(=O)N[C@@H](CCC(N)=O)C(=O)NCC(=O)N[C@H](C(=O)N2CCC[C@H]2C(=O)NCC(=O)N2CCC[C@H]2C(=O)N[C@@H](CCC(=O)O)C(=O)NCC(=O)NCC(=O)NCC(=O)N[C@@H](CCCCN)C(N)=O)[C@@H](C)O)NC(=O)[C@H](CC(C)C)NC(=O)CNC(=O)[C@H](Cc2c[nH]c3ccccc23)NC(=O)[C@H](Cc2ccc(O)cc2)NC(=O)[C@H](CC(N)=O)NC1=O [DX254]
